Our source for the residual activity and inhibition values is ChEMBL document CHEMBL5696442, “Discovery of type II inhibitors of TGFβ-activated kinase 1 (TAK1) and mitogen-activated protein kinase kinase kinase kinase 2 (MAP4K2)” (J Med Chem, 2015).

Assay [1] addresses Serine/threonine-protein kinase pim-2 (Homo sapiens) (UniProt Q9P1W9). Description: Inhibition of PIM2 (unknown origin) at 1 uM by Ambit Kinomescan binding assay relative to control; values are per cent of control.
The target in assay [2] is Dual specificity protein kinase CLK4 (Homo sapiens) (UniProt Q9HAZ1). Description: Inhibition of CLK4 (unknown origin) at 10 uM by Ambit Kinomescan binding assay.
Assay [3] concerns the target Cyclin-dependent kinase 2 (Homo sapiens) (UniProt P24941). Description: Inhibition of CDK2 (unknown origin) at 10 uM by Ambit Kinomescan binding assay relative to control.
Assay [4] concerns the target Serine/threonine-protein kinase Chk2 (Homo sapiens) (UniProt O96017). Put plainly: Inhibition of CHK2 K2 labeling site in human Huh-7 cells at 1 uM by KiNativ Profiling analysis relative to control. Type of assay: cell-based.
For assay [5], the target named is T1, Serine/threonine-protein kinase greatwall (Homo sapiens) (UniProt Q96GX5).
T1 sequence (whole entry): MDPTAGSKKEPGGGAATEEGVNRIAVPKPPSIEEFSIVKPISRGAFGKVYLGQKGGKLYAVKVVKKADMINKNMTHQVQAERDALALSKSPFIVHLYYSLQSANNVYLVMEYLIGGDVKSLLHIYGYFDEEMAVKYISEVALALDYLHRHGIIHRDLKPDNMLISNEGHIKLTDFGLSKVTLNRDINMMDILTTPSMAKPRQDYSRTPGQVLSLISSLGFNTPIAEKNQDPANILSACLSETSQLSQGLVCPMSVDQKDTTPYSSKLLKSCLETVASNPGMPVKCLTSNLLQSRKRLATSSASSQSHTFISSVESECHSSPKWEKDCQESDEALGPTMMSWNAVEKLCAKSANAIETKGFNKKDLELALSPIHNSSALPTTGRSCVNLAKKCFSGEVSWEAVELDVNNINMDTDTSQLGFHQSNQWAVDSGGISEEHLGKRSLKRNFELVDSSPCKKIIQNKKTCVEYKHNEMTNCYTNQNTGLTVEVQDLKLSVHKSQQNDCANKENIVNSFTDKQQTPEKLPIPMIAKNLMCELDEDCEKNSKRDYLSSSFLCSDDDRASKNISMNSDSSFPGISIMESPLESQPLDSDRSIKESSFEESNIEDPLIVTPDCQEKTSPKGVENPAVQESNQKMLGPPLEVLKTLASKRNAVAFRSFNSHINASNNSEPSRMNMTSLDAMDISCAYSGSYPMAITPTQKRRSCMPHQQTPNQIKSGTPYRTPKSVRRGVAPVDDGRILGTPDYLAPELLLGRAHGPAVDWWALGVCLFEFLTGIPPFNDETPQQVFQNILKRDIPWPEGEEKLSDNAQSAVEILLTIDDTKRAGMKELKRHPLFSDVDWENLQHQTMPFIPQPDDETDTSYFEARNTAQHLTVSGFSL
Put plainly: Inhibition of MASTL ATP labeling site in human Huh-7 cells at 10 uM by KiNativ Profiling analysis relative to control. It counts as cell-based.

For assay [6], the target named is Serine/threonine-protein kinase N2 (Homo sapiens) (UniProt Q16513). Put plainly: Inhibition of PKN2 Lys2 labeling site in human A-375 cells at 0.05 uM by KiNativ Profiling analysis relative to control. It counts as cell-based.
Assay [7] concerns the target p38 delta/gamma (Homo sapiens) (UniProt O15264+P53778). Put plainly: Inhibition of p38d/g K2 labeling site in human Huh-7 cells at 1 uM by KiNativ Profiling analysis relative to control. It counts as cell-based.
Assay [8] deals with cGMP-dependent protein kinase 1 (Homo sapiens) (UniProt Q13976). Description: Inhibition of PRKG1 (unknown origin) at 10 uM by Ambit Kinomescan binding assay.
Assay [9] deals with T2, NUAK family SNF1-like kinase 1 (Homo sapiens) (UniProt O60285).
T2 sequence (whole entry): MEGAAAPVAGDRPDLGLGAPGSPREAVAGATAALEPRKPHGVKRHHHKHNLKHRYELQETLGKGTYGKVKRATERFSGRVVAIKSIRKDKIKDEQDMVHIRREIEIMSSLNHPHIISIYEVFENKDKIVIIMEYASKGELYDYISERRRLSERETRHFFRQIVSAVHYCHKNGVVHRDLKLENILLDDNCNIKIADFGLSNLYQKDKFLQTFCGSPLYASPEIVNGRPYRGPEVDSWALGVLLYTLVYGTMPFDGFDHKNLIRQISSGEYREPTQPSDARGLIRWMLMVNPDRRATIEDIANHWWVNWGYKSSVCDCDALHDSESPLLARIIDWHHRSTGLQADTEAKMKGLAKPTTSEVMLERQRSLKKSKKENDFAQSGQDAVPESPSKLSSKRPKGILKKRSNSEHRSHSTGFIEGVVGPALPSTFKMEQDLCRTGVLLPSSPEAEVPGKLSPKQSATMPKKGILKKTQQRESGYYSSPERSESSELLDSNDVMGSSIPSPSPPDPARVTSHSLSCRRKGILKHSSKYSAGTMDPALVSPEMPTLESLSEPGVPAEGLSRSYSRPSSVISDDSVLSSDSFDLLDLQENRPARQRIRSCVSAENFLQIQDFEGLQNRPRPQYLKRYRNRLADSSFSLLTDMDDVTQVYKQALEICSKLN
Put plainly: Inhibition of NuaK1 K2 labeling site in human Huh-7 cells at 10 uM by KiNativ Profiling analysis relative to control. It counts as cell-based.

For assay [10], the target named is Serine/threonine-protein kinase pim-3 (Homo sapiens) (UniProt Q86V86). Put plainly: Inhibition of PIM3 (unknown origin) at 10 uM by Ambit Kinomescan binding assay.
Assay [11] deals with T3, Dual specificity mitogen-activated protein kinase kinase 3 (Homo sapiens) (UniProt P46734).
T3 sequence (whole entry): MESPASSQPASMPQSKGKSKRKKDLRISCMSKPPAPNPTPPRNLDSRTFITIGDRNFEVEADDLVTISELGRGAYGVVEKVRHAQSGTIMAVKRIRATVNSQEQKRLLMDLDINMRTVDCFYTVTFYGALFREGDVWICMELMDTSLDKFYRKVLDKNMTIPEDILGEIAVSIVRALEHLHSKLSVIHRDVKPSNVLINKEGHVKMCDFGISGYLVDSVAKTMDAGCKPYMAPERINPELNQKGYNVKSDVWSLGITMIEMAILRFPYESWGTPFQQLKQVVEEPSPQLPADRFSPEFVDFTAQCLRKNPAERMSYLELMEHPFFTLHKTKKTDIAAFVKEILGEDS
Put plainly: Inhibition of MAP2K3 ACT labeling site in human Huh-7 cell lysate at 1 uM by KiNativ Profiling analysis relative to control. Type of assay: subcellular.

The target of assay [12] is Serine/threonine-protein kinase WNK2 (Homo sapiens) (UniProt Q9Y3S1). Put plainly: Inhibition of Wnk2 Lys2 labeling site in human Huh-7 cell lysate at 1 uM by KiNativ Profiling analysis relative to control. Type of assay: subcellular.
The target in assay [13] is Cyclin-dependent kinase 2 (Homo sapiens) (UniProt P24941). Put plainly: Inhibition of CDK2 Lys2 labeling site harbouring DLKPQNLLINTEGAIK in human Huh-7 cells at 1 uM by KiNativ Profiling analysis relative to control. It counts as cell-based.

Structures are written as SMILES. Calls of active or inactive are those of the source. The rule behind the calls is not given here.

In general, residual activity refers to what remains of the control signal, in per cent. By inhibition is commonly meant the drop in the measured response relative to a control, in per cent.

Chain of Serine/threonine-protein kinase Chk2 (Homo sapiens) (O96017 whole entry): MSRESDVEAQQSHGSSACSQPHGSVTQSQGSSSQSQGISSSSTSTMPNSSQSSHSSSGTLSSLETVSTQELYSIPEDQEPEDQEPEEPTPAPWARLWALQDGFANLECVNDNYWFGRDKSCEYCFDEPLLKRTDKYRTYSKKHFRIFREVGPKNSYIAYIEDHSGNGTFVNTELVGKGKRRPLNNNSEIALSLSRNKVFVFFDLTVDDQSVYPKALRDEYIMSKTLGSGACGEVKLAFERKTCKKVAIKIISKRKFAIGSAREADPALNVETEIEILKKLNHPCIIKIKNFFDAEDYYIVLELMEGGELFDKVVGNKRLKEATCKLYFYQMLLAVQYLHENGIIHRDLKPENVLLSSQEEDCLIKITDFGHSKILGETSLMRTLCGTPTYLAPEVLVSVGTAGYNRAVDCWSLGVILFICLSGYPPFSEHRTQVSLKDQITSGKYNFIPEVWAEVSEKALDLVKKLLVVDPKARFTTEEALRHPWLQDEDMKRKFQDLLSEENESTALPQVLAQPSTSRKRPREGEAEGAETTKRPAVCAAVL
Chain of Dual specificity protein kinase CLK4 (Homo sapiens) (Q9HAZ1 whole entry, looked up): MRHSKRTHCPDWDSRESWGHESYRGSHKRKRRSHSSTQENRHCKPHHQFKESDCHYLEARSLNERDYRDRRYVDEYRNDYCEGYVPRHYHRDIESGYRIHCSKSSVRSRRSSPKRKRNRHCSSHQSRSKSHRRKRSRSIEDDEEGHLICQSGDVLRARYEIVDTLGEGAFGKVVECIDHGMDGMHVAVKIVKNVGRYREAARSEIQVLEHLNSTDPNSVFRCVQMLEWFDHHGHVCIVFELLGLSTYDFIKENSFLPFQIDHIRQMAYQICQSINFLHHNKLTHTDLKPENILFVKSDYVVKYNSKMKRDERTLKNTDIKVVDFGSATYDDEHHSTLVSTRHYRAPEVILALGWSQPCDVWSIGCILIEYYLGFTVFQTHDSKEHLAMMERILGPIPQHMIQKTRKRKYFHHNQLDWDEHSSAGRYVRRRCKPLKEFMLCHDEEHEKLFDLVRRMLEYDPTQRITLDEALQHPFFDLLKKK
Chain of cGMP-dependent protein kinase 1 (Homo sapiens) (Q13976 whole entry): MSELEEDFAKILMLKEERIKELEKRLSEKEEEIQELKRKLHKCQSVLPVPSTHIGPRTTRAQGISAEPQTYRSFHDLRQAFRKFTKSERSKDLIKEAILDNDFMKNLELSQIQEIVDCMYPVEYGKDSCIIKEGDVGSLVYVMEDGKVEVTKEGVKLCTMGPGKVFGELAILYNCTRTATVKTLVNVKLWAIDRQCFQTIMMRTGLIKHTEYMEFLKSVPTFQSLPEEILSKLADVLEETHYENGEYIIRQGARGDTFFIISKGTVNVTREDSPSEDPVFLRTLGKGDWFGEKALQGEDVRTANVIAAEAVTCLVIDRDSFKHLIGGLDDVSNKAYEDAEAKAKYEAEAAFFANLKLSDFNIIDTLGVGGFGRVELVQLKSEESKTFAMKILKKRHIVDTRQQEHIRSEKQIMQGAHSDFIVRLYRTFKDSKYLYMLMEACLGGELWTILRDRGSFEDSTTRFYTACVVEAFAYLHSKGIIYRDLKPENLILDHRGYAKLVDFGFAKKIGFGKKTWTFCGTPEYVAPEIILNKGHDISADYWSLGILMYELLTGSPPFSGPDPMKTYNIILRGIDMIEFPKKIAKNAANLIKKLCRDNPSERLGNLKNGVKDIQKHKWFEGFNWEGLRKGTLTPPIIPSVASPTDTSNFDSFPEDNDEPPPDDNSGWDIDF
Chain of Serine/threonine-protein kinase N2 (Homo sapiens) (Q16513 whole entry, looked up): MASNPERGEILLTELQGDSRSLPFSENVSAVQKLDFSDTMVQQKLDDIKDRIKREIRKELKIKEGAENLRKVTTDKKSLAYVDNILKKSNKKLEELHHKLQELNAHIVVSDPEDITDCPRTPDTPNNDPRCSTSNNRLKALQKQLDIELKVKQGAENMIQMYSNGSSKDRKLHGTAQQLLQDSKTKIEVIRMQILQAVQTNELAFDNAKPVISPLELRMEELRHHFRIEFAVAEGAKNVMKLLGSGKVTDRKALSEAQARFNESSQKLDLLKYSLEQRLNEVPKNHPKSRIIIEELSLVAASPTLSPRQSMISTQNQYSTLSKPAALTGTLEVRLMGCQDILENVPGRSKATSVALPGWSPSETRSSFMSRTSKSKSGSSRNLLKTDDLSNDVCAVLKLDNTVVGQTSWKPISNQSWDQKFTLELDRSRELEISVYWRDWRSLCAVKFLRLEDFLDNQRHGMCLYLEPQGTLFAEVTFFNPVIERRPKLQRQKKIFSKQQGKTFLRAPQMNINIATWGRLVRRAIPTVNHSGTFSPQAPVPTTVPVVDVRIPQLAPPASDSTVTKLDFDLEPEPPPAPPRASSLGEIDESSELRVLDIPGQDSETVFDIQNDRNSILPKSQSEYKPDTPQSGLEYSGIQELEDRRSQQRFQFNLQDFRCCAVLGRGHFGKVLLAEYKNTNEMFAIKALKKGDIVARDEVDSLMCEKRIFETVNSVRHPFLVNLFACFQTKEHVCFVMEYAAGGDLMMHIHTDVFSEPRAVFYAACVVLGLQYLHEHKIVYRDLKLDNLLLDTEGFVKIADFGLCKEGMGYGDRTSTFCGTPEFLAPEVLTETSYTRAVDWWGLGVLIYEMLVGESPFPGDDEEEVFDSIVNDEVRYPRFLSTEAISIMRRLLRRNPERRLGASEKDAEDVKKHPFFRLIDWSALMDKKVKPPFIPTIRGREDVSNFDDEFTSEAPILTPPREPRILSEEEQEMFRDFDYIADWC
Chain of Serine/threonine-protein kinase pim-2 (Homo sapiens) (Q9P1W9 whole entry, looked up): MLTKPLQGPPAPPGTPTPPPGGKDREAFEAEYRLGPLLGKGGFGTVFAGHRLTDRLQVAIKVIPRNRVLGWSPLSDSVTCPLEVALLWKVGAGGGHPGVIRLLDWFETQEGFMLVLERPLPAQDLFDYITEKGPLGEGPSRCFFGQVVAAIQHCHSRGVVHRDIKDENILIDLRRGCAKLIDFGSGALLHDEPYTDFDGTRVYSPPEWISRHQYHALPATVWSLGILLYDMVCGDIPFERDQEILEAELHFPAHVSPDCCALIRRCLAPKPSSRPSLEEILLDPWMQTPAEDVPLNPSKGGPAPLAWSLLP

In assay [1], `CCN1CCN(Cc2ccc(NC(=O)c3ccc(C)c(/C=C/c4cnc5[nH]ccc5c4OC)c3)cc2C(F)(F)F)CC1` returned a residual activity of 100%.
For `CCN1CCN(Cc2ccc(NC(=O)c3ccc(C)c(Oc4ccnc5[nH]ccc45)c3)cc2C(F)(F)F)CC1`, the inhibition entry in assay [2], in [8] and in [10] was “inactive” in each case. The inhibition in [3] came out at 11%; in assay [4], 17.5%; in [5], 3.9%; in [6], 5.3%; in [7], 25.2%; in assay [9], 35.4%.
Turning to `CNc1cc(Oc2cc(C(=O)Nc3cc(N4CCN(C)CC4)cc(C(F)(F)F)c3)ccc2C)ncn1`, the inhibition was 0.6% in assay [11], 2.7% in assay [12] and -0.4% in assay [13].
